From publication PMC12203311, “Design, synthesis, in silico and in vitro evaluation of pyrrole–indole hybrids as dual tubulin and aromatase inhibitors with potent anticancer activities” (RSC Advances, 2025)

What was measured:
Experiment in all cases: NCI60 five-dose screen
MDA-MB-231/ATCC = type: cell-based; conditions: Homo sapiens, breast cancer; for CC50: read-out: LC50 (the source's name)
HCT-116 = type: cell-based; conditions: Homo sapiens, HCT-116, colon cancer; for CC50: read-out: LC50 (the source's name)
UACC-62 = type: cell-based; conditions: Homo sapiens, UACC-62, melanoma; for CC50: read-out: LC50 (the source's name)
SNB-19 = type: cell-based; conditions: Homo sapiens, SNB-19, CNS cancer; for CC50: read-out: LC50 (the source's name)
ACHN = type: cell-based; conditions: Homo sapiens, renal cancer; for CC50: read-out: LC50 (the source's name)
BT-549 = type: cell-based; conditions: Homo sapiens, BT-549, breast cancer; for CC50: read-out: LC50 (the source's name)
SF-295 = type: cell-based; conditions: Homo sapiens, SF-295, CNS cancer; for CC50: read-out: LC50 (the source's name)
LOX IMVI = type: cell-based; conditions: Homo sapiens, melanoma; for CC50: read-out: LC50 (the source's name)
HCT-15 = type: cell-based; conditions: Homo sapiens, HCT-15, colon cancer; for CC50: read-out: LC50 (the source's name)
NCI-H226 = type: cell-based; conditions: Homo sapiens, NCI-H226, NSC lung cancer; for CC50: read-out: LC50 (the source's name)
PC-3 = type: cell-based; conditions: Homo sapiens, PC-3, prostate cancer; for CC50: read-out: LC50 (the source's name)
K-562 = type: cell-based; conditions: Homo sapiens, K562, K-562, leukemia; for CC50: read-out: LC50 (the source's name)
A549/ATCC = type: cell-based; conditions: Homo sapiens, NSC lung cancer; for CC50: read-out: LC50 (the source's name)
SK-MEL-2 = type: cell-based; conditions: Homo sapiens, SK-MEL-2, melanoma; for CC50: read-out: LC50 (the source's name)
HT29 = type: cell-based; conditions: Homo sapiens, HT-29, HT29, colon cancer; for CC50: read-out: LC50 (the source's name)
OVCAR-3 = type: cell-based; conditions: Homo sapiens, OVCAR-3, ovarian cancer; for CC50: read-out: LC50 (the source's name)
MOLT-4 = type: cell-based; conditions: Homo sapiens, MOLT-4, leukemia; for CC50: read-out: LC50 (the source's name)
MCF7 = type: cell-based; conditions: Homo sapiens, MCF7, breast cancer; for CC50: read-out: LC50 (the source's name)
SN12C = type: cell-based; conditions: Homo sapiens, renal cancer; for CC50: read-out: LC50 (the source's name)
MDA-MB-468 = type: cell-based; conditions: Homo sapiens, MDA-MB-468, breast cancer; for CC50: read-out: LC50 (the source's name)
SNB-75 = type: cell-based; conditions: Homo sapiens, SNB-75, CNS cancer; for CC50: read-out: LC50 (the source's name)
UO-31 = type: cell-based; conditions: Homo sapiens, UO-31, renal cancer; for CC50: read-out: LC50 (the source's name)
SK-MEL-5 = type: cell-based, human; conditions: Homo sapiens; for CC50: SK-MEL-5, SK-MEL-5, melanoma, read-out: LC50 (the source's name); for GI50: SK-MEL-5, melanoma
HCC-2998 = type: cell-based; conditions: Homo sapiens, HCC-2998, colon cancer; for CC50: read-out: LC50 (the source's name)
RPMI-8226 = type: cell-based; conditions: Homo sapiens, RPMI-8226, leukemia; for CC50: read-out: LC50 (the source's name)
IGROV1 = type: cell-based; conditions: Homo sapiens, IGROV-1; IGROV1, ovarian cancer
T-47D = type: cell-based; conditions: Homo sapiens, T47D, breast cancer; for CC50: read-out: LC50 (the source's name)
SF-539 = type: cell-based; conditions: Homo sapiens, SF-539, CNS cancer; for CC50: read-out: LC50 (the source's name)
EKVX = type: cell-based; conditions: Homo sapiens, NSC lung cancer; for CC50: read-out: LC50 (the source's name)
SF-268 = type: cell-based; conditions: Homo sapiens, SF-268, CNS cancer; for CC50: read-out: LC50 (the source's name)
SK-OV-3 = type: cell-based; conditions: Homo sapiens, SK-OV-3, ovarian cancer; for CC50: read-out: LC50 (the source's name)
OVCAR-8 = type: cell-based; conditions: Homo sapiens, OVCAR-8, ovarian cancer; for CC50: read-out: LC50 (the source's name)
NCI/ADR-RES = type: cell-based, human; conditions: Homo sapiens, ovarian cancer; for CC50: read-out: LC50 (the source's name)

## CCc1c[nH]c(/C=N/NC(=O)c2[nH]c3ccc(Br)cc3c2-c2ccccc2)c1 [Derivative 3t, (E)-5-Bromo-N′-((4-ethyl-1H-pyrrol-2-yl)methylene)-3-phenyl-1H-indole-2-carbohydrazide]
MDA-MB-231/ATCC
  GI50: 311 nM
  CC50: 42.4 µM
HCT-116
  GI50: 385 nM
  CC50: 40.3 µM
UACC-62
  GI50: 442 nM
  CC50: 32.1 µM
SNB-19
  GI50: 396 nM
  CC50: 41.3 µM
ACHN
  GI50: 628 nM
  CC50: 35.5 µM
BT-549
  GI50: 390 nM
  CC50: 23.9 µM
SF-295
  GI50: 319 nM
  CC50: 24.7 µM
LOX IMVI
  GI50: 427 nM
  CC50: 8.27 µM
HCT-15
  GI50: 319 nM
  CC50: 35.6 µM
NCI-H226
  GI50: 330 nM
  CC50: 28 µM
PC-3
  GI50: 529 nM
  CC50: 57 µM
K-562
  GI50: 348 nM
  CC50: > 100 µM
A549/ATCC
  GI50: 397 nM
  CC50: 38.8 µM
SK-MEL-2
  GI50: 454 nM
  CC50: 43.8 µM
HT29
  GI50: 308 nM
  CC50: 21 µM
OVCAR-3
  GI50: 316 nM
  CC50: 41.7 µM
MOLT-4
  GI50: 399 nM
  CC50: 94.2 µM
MCF7
  GI50: 375 nM
  CC50: 33.8 µM
SN12C
  GI50: 372 nM
  CC50: 30 µM
MDA-MB-468
  GI50: 263 nM
  CC50: 9.22 µM
SNB-75
  GI50: 440 nM
  CC50: 37.8 µM
UO-31
  GI50: 1000 nM
  CC50: 40.7 µM
SK-MEL-5
  CC50: 6.96 µM
  GI50: 279 nM
HCC-2998
  GI50: 342 nM
  CC50: 30.4 µM
RPMI-8226
  GI50: 343 nM
  CC50: > 100 µM
IGROV1
  GI50: 888 nM
  LC50 (concentration causing 50% net cell kill): 48.6 µM
T-47D
  GI50: 1590 nM
  CC50: 39.3 µM
SF-539
  GI50: 203 nM
  CC50: 19.6 µM
EKVX
  GI50: 448 nM
  CC50: 35.6 µM
SF-268
  GI50: 861 nM
  CC50: 51.9 µM
SK-OV-3
  GI50: 922 nM
  CC50: 35.4 µM
OVCAR-8
  GI50: 316 nM
  CC50: 26 µM
NCI/ADR-RES
  GI50: 247 nM
  CC50: 22 µM

## O=C(N/N=C/c1[nH]ccc1Cl)c1[nH]c2ccc(Br)cc2c1-c1ccccc1 [Derivative 3g, (E)-5-Bromo-N′-((3-chloro-1H-pyrrol-2-yl)methylene)-3-phenyl-1H-indole-2-carbohydrazide]
MDA-MB-231/ATCC
  GI50: 2070 nM
  CC50: 28.2 µM
HCT-116
  GI50: 467 nM
  CC50: 79.9 µM
UACC-62
  GI50: 411 nM
  CC50: 37 µM
SNB-19
  GI50: 1060 nM
  CC50: 35.4 µM
ACHN
  GI50: 627 nM
  CC50: 34.5 µM
BT-549
  GI50: 3560 nM
  CC50: 46.8 µM
SF-295
  GI50: 501 nM
  CC50: 26 µM
LOX IMVI
  GI50: 555 nM
  CC50: 29.4 µM
HCT-15
  GI50: 465 nM
  CC50: 34.3 µM
NCI-H226
  GI50: 1440 nM
  CC50: 32.1 µM
PC-3
  GI50: 826 nM
  CC50: 63.6 µM
K-562
  GI50: 413 nM
  CC50: > 100 µM
A549/ATCC
  GI50: 838 nM
  CC50: 53.4 µM
SK-MEL-2
  GI50: 1070 nM
  CC50: 38.7 µM
HT29
  GI50: 401 nM
  CC50: 58.5 µM
OVCAR-3
  GI50: 409 nM
  CC50: 34.9 µM
MOLT-4
  GI50: 1710 nM
  CC50: > 100 µM
MCF7
  GI50: 376 nM
  CC50: 42.2 µM
SN12C
  GI50: 1340 nM
  CC50: 29.2 µM
MDA-MB-468
  GI50: 297 nM
  CC50: 24.7 µM
SNB-75
  GI50: 325 nM
  CC50: 38.6 µM
UO-31
  GI50: 577 nM
  CC50: 35.7 µM
SK-MEL-5
  CC50: 63 µM
  GI50: 427 nM
HCC-2998
  GI50: 1230 nM
  CC50: 28.6 µM
RPMI-8226
  GI50: 855 nM
  CC50: > 100 µM
IGROV1
  GI50: 734 nM
T-47D
  GI50: 2500 nM
  CC50: 81.9 µM
SF-539
  GI50: 378 nM
  CC50: 18.5 µM
EKVX
  GI50: 2660 nM
  CC50: 38.1 µM
SF-268
  GI50: 1760 nM
  CC50: 53 µM
SK-OV-3
  GI50: 11600 nM
  CC50: 64.1 µM
OVCAR-8
  GI50: 481 nM
  CC50: 27.7 µM
NCI/ADR-RES
  GI50: 219 nM
  CC50: 10.5 µM

## O=C(N/N=C/c1ccc[nH]1)c1[nH]c2ccc(Br)cc2c1-c1ccccc1 [Derivative 3a, (E)-N′-((1H-Pyrrol-2-yl)methylene)-5-bromo-3-phenyl-1H-indole-2-carbohydrazide]
MDA-MB-231/ATCC
  GI50: 396 nM
  CC50: 21 µM
HCT-116
  GI50: 280 nM
  CC50: 32.3 µM
UACC-62
  GI50: 99 nM
  CC50: 8.03 µM
SNB-19
  GI50: 416 nM
  CC50: 35 µM
ACHN
  GI50: 355 nM
  CC50: 21.2 µM
BT-549
  GI50: 375 nM
  CC50: 6.39 µM
SF-295
  GI50: 224 nM
  CC50: 23.2 µM
LOX IMVI
  GI50: 244 nM
  CC50: 19 µM
HCT-15
  GI50: 269 nM
  CC50: 32.3 µM
NCI-H226
  GI50: 323 nM
  CC50: 23.3 µM
PC-3
  GI50: 344 nM
  CC50: 29.6 µM
K-562
  GI50: 202 nM
  CC50: > 100 µM
A549/ATCC
  GI50: 357 nM
  CC50: 33.6 µM
SK-MEL-2
  GI50: 357 nM
  CC50: 38.8 µM
HT29
  GI50: 329 nM
  CC50: 9.31 µM
OVCAR-3
  GI50: 423 nM
  CC50: 35.3 µM
MOLT-4
  GI50: 384 nM
  CC50: > 100 µM
MCF7
  GI50: 136 nM
  CC50: 29.1 µM
SN12C
  GI50: 371 nM
  CC50: 3.97 µM
MDA-MB-468
  GI50: 209 nM
  CC50: 42.1 µM
SNB-75
  GI50: 136 nM
  CC50: 16 µM
UO-31
  GI50: 431 nM
  CC50: 20.2 µM
SK-MEL-5
  CC50: 15.7 µM
  GI50: 302 nM
HCC-2998
  GI50: 415 nM
  CC50: 19.5 µM
RPMI-8226
  GI50: 337 nM
  CC50: > 100 µM
IGROV1
  GI50: 404 nM
  LC50 (concentration causing 50% net cell kill): 14.6 µM
T-47D
  GI50: 341 nM
  CC50: 51.3 µM
SF-539
  GI50: 202 nM
  CC50: 14.6 µM
EKVX
  GI50: 1230 nM
  CC50: 33.4 µM
SF-268
  GI50: 995 nM
  CC50: 56.4 µM
SK-OV-3
  GI50: 702 nM
  CC50: 31.8 µM
OVCAR-8
  GI50: 323 nM
  CC50: 6.55 µM
NCI/ADR-RES
  GI50: 440 nM
  CC50: 59.2 µM
